Laboratory results from patent publication US20140309192A1, “MODULATORS OF THE G PROTEIN-COUPLED MAS RECEPTOR AND THE TREATMENT OF DISORDERS RELATED THERETO” (ARENA PHARMACEUTICALS, INC., priority 2011, published 2014).
Where a name gives a salt, the structure may show the parent alone.

Assay: Dynamic moisture-sorption (DMS)
Format: physicochemical
Conditions: for hygroscopicity (DMS) / total weight gain from the dried state (DMS): 25° C.; for weight gain at 90% RH and 25° C. (DMS): after a drying period
Method: A dynamic moisture-sorption (DMS) study was conducted using a dynamic moisture-sorption analyzer, VTI Corporation, SGA-100. Samples were prepared for DMS analysis by placing 5 mg to 20 mg of a sample in a tared sample holder. The sample was placed on the hang-down wire of the VTI balance. A drying step was run, typically at 40° C. and 0.5-1% RH for 1 h. The isotherm temperature is 25° C. Defined % RH holds typically ranged from 10% RH to 90% RH, with intervals of 10 to 20% RH. A % weight change smaller than 0.010% over 10 min, or up to 2 h, whichever occurred first, was required before continuing to the next % RH hold. The water content of the sample equilibrated as described above was determined at each % RH hold.

SMILES	hygroscopicity (DMS)	weight gain at 90% RH and 25° C. (DMS)	water picked up from 30% RH to 90% RH at 25° C. (DMS)	total weight gain from the dried state (DMS)
NC(=O)[C@H](CO)NCc1ccc(C(=O)Nc2ccc(Cl)cc2N2CCN(CCC(F)(F)F)CC2)c(F)c1F [Compound 170, (S)-4-((1-Amino-3-hydroxy-1-oxopropan-2-ylamino)methyl)-N-(4-chloro-2-(4-(3,3,3-trifluoropropyl)piperazin-1-yl)phenyl)-2,3-difluorobenzamide]	non-hygroscopic	~0.1%		
Cl.Cl.NC(=O)[C@H](CO)NCc1ccc(C(=O)Nc2ccc(Cl)cc2N2CCN(CCC(F)(F)F)CC2)c(F)c1F [Compound 170 dihydrochloride, (S)-4-((1-amino-3-hydroxy-1-oxopropan-2-ylamino)methyl)-N-(4-chloro-2-(4-(3,3,3-trifluoropropyl)piperazin-1-yl)phenyl)-2,3-difluorobenzamide dihydrochloride]		drying period, was about 3.4%. It was shown by PXRD of the		
NC(=O)[C@H](CO)NCc1ccc(C(=O)Nc2ccc(Cl)cc2N2CCN(CCC(F)(F)F)CC2)c(F)c1F [Compound 170 (Example 2.5B)]	FIG. 11: This polymorph of the free base is non-hygroscopic,	increasing ~0.1% weight at 90% RH and 25 °C		
NC(=O)[C@H](CO)NCc1ccc(C(=O)Nc2ccc(Cl)cc2N2CCN(CCC(F)(F)F)CC2)c(F)c1F [Compound 170 dihydrochloride hydrate]			0.7% water from 30% RH to 90% RH at 25 °C	dried state was about 2.5%. The sample picked up only about
NC(=O)[C@H](CO)NCc1ccc(C(=O)Nc2ccc(Cl)cc2N2CCN(CCC(F)(F)F)CC2)c(F)c1F [Compound 170 dihydrochloride solvate]				The total weight gain from the dried state was about 2%, thus
